Measured values as given in the NIST ThermoML archive (doi:10.1021/je700406p).
Numbers after ± are expanded uncertainties.

Conditions: Liquid, Vibrating tube method

CC(C)(N)CO [2-amino-2-methylpropan-1-ol]
mass density [kg/m3]
Conditions	313.06 K	322.98 K	332.91 K	342.84 K	352.79 K	362.65 K
500 kPa	–	922.7 ± 4.6	914 ± 4.5	905.4 ± 4.5	896.8 ± 4.4	–
504 kPa	–	–	–	–	–	888 ± 4.3
1000 kPa	931.4 ± 4.7	922.8 ± 4.6	914.4 ± 4.6	905.7 ± 4.5	897.2 ± 4.4	–
1002 kPa	–	–	–	–	–	888.4 ± 4.3
2000 kPa	931.9 ± 4.7	923.4 ± 4.6	915 ± 4.6	906.4 ± 4.5	897.9 ± 4.4	889 ± 4.3
3000 kPa	932.4 ± 4.7	924 ± 4.6	915.6 ± 4.6	907 ± 4.5	898.5 ± 4.4	889.7 ± 4.3
4000 kPa	932.9 ± 4.7	924.5 ± 4.7	916.1 ± 4.6	907.6 ± 4.5	–	890.5 ± 4.3
4001 kPa	–	–	–	–	899.2 ± 4.4	–
5000 kPa	933.5 ± 4.7	925.1 ± 4.7	916.7 ± 4.6	908.3 ± 4.5	899.9 ± 4.4	891.2 ± 4.4
6000 kPa	933.9 ± 4.8	925.7 ± 4.7	917.3 ± 4.6	908.9 ± 4.5	900.5 ± 4.4	891.8 ± 4.4
7000 kPa	934.5 ± 4.8	926.2 ± 4.7	918 ± 4.6	909.5 ± 4.5	–	892.5 ± 4.4
7001 kPa	–	–	–	–	901.2 ± 4.5	–
8000 kPa	935 ± 4.8	926.8 ± 4.7	918.5 ± 4.6	–	901.8 ± 4.5	–
8001 kPa	–	–	–	910.1 ± 4.5	–	893.2 ± 4.4
9007 kPa	935.5 ± 4.8	927.4 ± 4.7	–	–	–	–
9009 kPa	–	–	919.1 ± 4.6	910.7 ± 4.5	902.4 ± 4.5	–
9010 kPa	–	–	–	–	–	893.9 ± 4.4
10002 kPa	–	927.8 ± 4.7	–	–	–	–
10003 kPa	936 ± 4.8	–	919.7 ± 4.6	911.3 ± 4.6	903.1 ± 4.5	894.6 ± 4.4
11000 kPa	936.6 ± 4.8	928.4 ± 4.7	–	–	–	–
11001 kPa	–	–	–	911.9 ± 4.6	903.7 ± 4.5	895.2 ± 4.4
11002 kPa	–	–	920.2 ± 4.6	–	–	–
12000 kPa	937 ± 4.8	928.9 ± 4.7	–	912.5 ± 4.6	904.3 ± 4.5	895.8 ± 4.4
12001 kPa	–	–	920.8 ± 4.6	–	–	–
13000 kPa	937.6 ± 4.8	929.5 ± 4.7	921.3 ± 4.7	913.1 ± 4.6	–	–
13001 kPa	–	–	–	–	904.9 ± 4.5	896.5 ± 4.4
14000 kPa	938.1 ± 4.8	930.1 ± 4.7	921.9 ± 4.7	913.6 ± 4.6	905.5 ± 4.5	897.1 ± 4.4
15002 kPa	938.6 ± 4.8	–	922.4 ± 4.7	–	906.1 ± 4.5	–
15003 kPa	–	930.6 ± 4.7	–	914.3 ± 4.6	–	897.8 ± 4.5
16000 kPa	939.1 ± 4.8	–	–	–	–	–
16001 kPa	–	–	923 ± 4.7	914.8 ± 4.6	906.7 ± 4.5	898.4 ± 4.5
16006 kPa	–	931.1 ± 4.8	–	–	–	–
17000 kPa	–	–	–	–	–	899.1 ± 4.5
17001 kPa	939.7 ± 4.8	931.6 ± 4.8	923.5 ± 4.7	915.3 ± 4.6	907.4 ± 4.5	–
18002 kPa	940.2 ± 4.8	932.1 ± 4.8	924.1 ± 4.7	915.9 ± 4.6	907.9 ± 4.6	899.7 ± 4.5
18997 kPa	–	–	–	–	908.5 ± 4.6	–
19000 kPa	940.6 ± 4.8	932.6 ± 4.8	924.6 ± 4.7	916.5 ± 4.6	–	900.3 ± 4.5
20029 kPa	941.1 ± 4.9	–	–	–	–	–
20030 kPa	–	933.2 ± 4.8	925.2 ± 4.7	917.1 ± 4.6	909.1 ± 4.6	901 ± 4.5
21001 kPa	–	–	–	–	909.7 ± 4.6	–
21002 kPa	–	–	925.6 ± 4.7	–	–	–
21004 kPa	941.7 ± 4.9	–	–	–	–	901.6 ± 4.5
21005 kPa	–	933.7 ± 4.8	–	917.6 ± 4.6	–	–
22004 kPa	942.1 ± 4.9	934.1 ± 4.8	926.2 ± 4.7	918.1 ± 4.7	910.3 ± 4.6	902.2 ± 4.5
23000 kPa	–	–	926.7 ± 4.7	918.7 ± 4.7	910.9 ± 4.6	902.8 ± 4.5
24003 kPa	–	–	–	–	–	903.3 ± 4.5
24004 kPa	943.1 ± 4.9	935.2 ± 4.8	927.3 ± 4.7	919.2 ± 4.7	911.4 ± 4.6	–
